Measurements as given in publication PMC11284088, “Synthesis and biochemical characterization of naphthoquinone derivatives targeting bacterial histidine kinases” (The Journal of Antibiotics, 2024).
“Also recorded” adds a separate entry of the source. Where two headings read alike, the source gives them in different places.

Legend:
[1] = target: T1, WalK (207-611, B. subtilis) (Bacillus subtilis, UniProt Q45614); test: Affinity selection/mass spectrometry, competition with waldiomycin; format: binding; set-up: key to AS/MS: AS/MS + competitive inhibition of the binding of waldiomycin to WalK; − increased binding of waldiomycin to WalK
T1 construct: His6 (N); made in house; host or cells: E. coli BL21(DE3)
T1 sequence (Q45614 207-611): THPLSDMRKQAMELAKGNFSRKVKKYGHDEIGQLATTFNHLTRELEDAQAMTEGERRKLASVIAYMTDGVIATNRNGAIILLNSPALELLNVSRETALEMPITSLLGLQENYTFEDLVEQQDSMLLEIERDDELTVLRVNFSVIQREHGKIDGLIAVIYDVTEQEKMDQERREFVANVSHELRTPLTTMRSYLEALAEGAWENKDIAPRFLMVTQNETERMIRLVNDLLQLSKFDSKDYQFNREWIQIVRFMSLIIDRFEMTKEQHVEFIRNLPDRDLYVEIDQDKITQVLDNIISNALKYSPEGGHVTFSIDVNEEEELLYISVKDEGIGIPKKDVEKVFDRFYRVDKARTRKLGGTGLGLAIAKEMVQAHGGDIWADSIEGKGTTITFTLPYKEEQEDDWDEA
Experimental: The affinity selection/mass spectrometry (AS/MS) is a method which can detect the binding of small compounds to proteins. This experiment was carried out following a previously established protocol (Fig. 5), with the exception of using Millipore 96-well filter plates (MSBVN1210) instead of MAHAN4510. In the experiment, 1 µM of WalK (207-611, B. subtilis, refer to Table S2) was combined and incubated with 5 µM of waldiomycin and competitor compounds in a reaction buffer. The buffer composition was as follows: 25 mM Tris-HCl (pH 8.0), 50 mM KCl, 50 mM NH4Cl, 5 mM MgCl2, 1 mM DTT, and 0.1% CHAPS. Following the incubation, the mixture was subjected to size-exclusion chromatography via centrifugation to eliminate free compounds. The protein that was eluted was then denatured by adding an equal volume of methanol/0.1% formic acid. The compounds that were subsequently released from the protein were detected using an LC/MS system. The concentrations of waldiomycin were calculated from the value of peak areas using calibration curve that covered the range of 1 nM to 1 µM (R^2 = 0.9991). The concentration of waldiomycin in the eluate of WalK and waldiomycin without competitor was 10.1 nM, and percentages to this value were calculated for other samples.

[2] = tested on: iseA (formerly yoeB); test: RT-qPCR of iseA expression in B. subtilis cells; format: cell-based, B. subtilis 168; set-up: key to RT-qPCR: RT-qPCR + iseA gene expression was induced in B. subtilis 168; − no effect; settings: for RT-qPCR: summary class, iseA gene expression in B. subtilis 168
Experimental: In brief, the cells were aerated and grown to an optical density at 660 nm of 0.3–0.4 at 37 °C. After the addition of DMSO or naphthoquinone derivatives, the cultures were further incubated for 5 min, cooled on ice for 1 min, and then harvested by centrifugation (2300 × g, 10 min, 4 °C). The cells were resuspended in 800 µl of RNA Lysis Buffer (SV Total RNA Isolation System, Z3100, Promega), transferred to a screw-capped tube containing 400 mg of glass beads (GB-01, TOMY), and disrupted using MicroSmash (MS-100, TOMY Medico) at 3000 rpm, 60 s ON/OFF for 6 cycles. RNA was then purified from 175 µl of the supernatant using the SV Total RNA Isolation System, followed by DNase I treatment (Turbo DNA-free^TM Kit, AM1907, Invitrogen) to remove any residual genomic DNA contamination. […] The expression levels of the genes were normalized using the 16S rRNA gene as an internal standard. Each assay was performed at least three times. Statistical analyses were conducted using Tukey’s multiple comparison test (GraphPad Prism 7).

[3] = target: T2, WalK (Bacillus subtilis, UniProt Q45614); test: Inhibition of WalK autophosphorylation; format: biochemical; set-up: key to WalK: WalK + inhibitory effect against WalK; settings: for IC50: against WalK from B. subtilis, autophosphorylation, N.I. = no inhibition; for inhibitory activity against WalK: in words; for WalK: summary class
T2 construct: His6 (N); made in house; host or cells: E. coli BL21(DE3)
T2 sequence (Q45614 207-611): as above
Experimental: Autophosphorylation of WalK was conducted at 0.5 or 1 µM in a reaction mixture comprising 50 mM Tris-HCl (pH 8.5), 100 mM KCl, 5 mM MgCl2, 100 mM NH4Cl, 5% DMSO, and 40 µM ATP. The total reaction volume was 40 µl, and the incubation lasted for 30 min at 25 °C. To terminate the reaction, 40 µl of 2 × SDS-PAGE sample buffer was added, followed by a 10-min incubation at 37 °C. Subsequently, SDS-PAGE (10% acrylamide) was performed, and the samples were subjected to Western blotting using a PVDF membrane (Bio-Rad 1620177). The primary antibody used was anti-N3-phosphohistidine antibody (clone SC56-2) (EDM Millipore Corp), and the secondary antibody was goat anti-rabbit IgG-HRP (Abcam). A 2% bovine serum albumin (Sigma-Aldrich) solution served as the blocking reagent. Signals originating from phosphorylated HKs were detected using the HRP substrate (Immobilon Western Chemiluminescent HRP substrate, Millipore) and the Multi Imager II Multi Box (Bio Tools). Signal intensities were quantified with Image Analysis Software CS Analyzer 4 (ATTO). IC50 values (50% inhibitory concentrations) were determined using Prism 7 software (GraphPad).
In the assessment of naphthoquinone derivatives, the initial screening for inhibitory activity against WalK autophosphorylation was conducted at 50 or 100 µg ml^−1. Compounds displaying inhibitory activity were further examined to ascertain their IC50 values against WalK. For the chosen compounds, inhibition against EvgS, EnvZ, PhoQ, and CpxA HKs was also assessed. These reactions involved the use of 1 µM HK, 40 µM ATP, and a 30 min incubation at 25 °C.

[4] = tested on: B. subtilis 168 strain; test: MIC, standard microtiter broth dilution; format: cell-based, Bacillus subtilis; set-up: key to MIC: MIC + antibacterial activity against Bacillus subtilis 168; settings: for antibacterial (antimicrobial) activity against B. subtilis: in words
Experimental: The minimum inhibitory concentrations (MICs) were determined using the standard microtiter broth dilution method, as recommended by the guidelines of the Clinical Laboratory Standards Institute.

[5] = B. subtilis 168 strain grown in LB broth at 37 °C for 18 h
[6] = Bacillus subtilis, B. subtilis 168 strain grown in LB broth at 37 °C for 18 h, read-out: MIC

## O=C1C(Cl)=C(N2CCNCC2)C(=O)c2c(O)ccc(O)c21 [2a, 2-chloro-5,8-dihydroxy-3-(piperazin-1-yl)naphthalene-1,4-dione]
[1]; compound 30 and 100 µM, in words
  effect on the signal of waldiomycin: reduced the signal of waldiomycin in a dose-dependent manner
[1]; compound at 100 µM, waldiomycin 5 µM, WalK 1 µM
  signal of waldiomycin compared to only waldiomycin with WalK: about 10%
[1]; in words
  binding to WalK competitive with that of waldiomycin: competitive; also recorded: competitively interacted with waldiomycin
[2]
  RT-qPCR: +
[3]; read-out: IC50
  IC50: 32.4 µM
[3]
  inhibitory activity against WalK: weaker
  WalK: +

## O=C1C(N2CCNCC2)=CC(=O)c2c(O)cccc21 [2b, 5-hydroxy-2-(piperazin-1-yl)naphthalene-1,4-dione]
[4]; [5]
  MIC: 8 µg/mL
[4]
  antibacterial (antimicrobial) activity against B. subtilis: equal to waldiomycin or even stronger
[4]; summary class, Bacillus subtilis 168
  MIC: +
[1]; compound 30 or 100 µM, waldiomycin 5 µM, WalK 1 µM
  increase of MS signal of the collected waldiomycin compared to only waldiomycin: about twofold
[1]; in words
  binding to WalK competitive with that of waldiomycin: not competitive; also recorded: enhanced the binding of waldiomycin to WalK
[1]; summary class, effect on binding of waldiomycin to WalK
  AS/MS: −
[2]; exponentially growing cells, subMIC or MIC levels, 5 min, relative to DMSO control
  expression of iseA: did not change
[2]
  RT-qPCR: −
[3]; read-out: IC50
  IC50: 48.4 µM
[3]
  WalK: +

## O=C1C(Cl)=C(N2CCNCC2)C(=O)c2ccccc21 [2c, 2-chloro-3-(piperazin-1-yl)naphthalene-1,4-dione]
[4]; [5]
  MIC: 8 µg/mL
[4]
  antibacterial (antimicrobial) activity against B. subtilis: equal to waldiomycin or even stronger
[3]
  IC50: N.I.
  inhibitory activity against WalK: did not show any inhibitory activity; also recorded: inactive

## O=C1C(N2CCNCC2)=C(Cl)C(=O)c2c1cccc2[N+](=O)[O-] [2d, 3-chloro-5-nitro-2-(piperazin-1-yl)naphthalene-1,4-dione]
[4]; [5]
  MIC: 8 µg/mL
[4]
  antibacterial (antimicrobial) activity against B. subtilis: equal to waldiomycin or even stronger
[3]; read-out: IC50
  IC50: 305 µM

## O=C1C(Cl)=C(NCCO)C(=O)c2c(O)ccc(O)c21 [2e, 2-chloro-5,8-dihydroxy-3-((2-hydroxyethyl)amino)naphthalene-1,4-dione]
[4]; [5]
  MIC: 2 µg/mL
[4]
  antibacterial (antimicrobial) activity against B. subtilis: equal to waldiomycin or even stronger
[3]
  IC50: N.I.
  inhibitory activity against WalK: did not show any inhibitory activity; also recorded: inactive

## O=C1C(Cl)=C(NCCc2ccc(O)c(O)c2)C(=O)c2c(O)ccc(O)c21 [2f, 2-chloro-3-((3,4-dihydroxyphenethyl)amino)-5,8-dihydroxynaphthalene-1,4-dione]
[4]; [5]
  MIC: 8 µg/mL
[4]
  antibacterial (antimicrobial) activity against B. subtilis: equal to waldiomycin or even stronger
[3]
  IC50: N.I.
  inhibitory activity against WalK: did not show any inhibitory activity; also recorded: inactive

## O=C1C(Cl)=C(Nc2cccc(O)c2)C(=O)c2c(O)ccc(O)c21 [2g, 2-chloro-5,8-dihydroxy-3-((3-hydroxyphenyl)amino)naphthalene-1,4-dione]
[4]; [5]
  MIC: 1 µg/mL
[4]
  antibacterial (antimicrobial) activity against B. subtilis: equal to waldiomycin or even stronger
[3]; read-out: IC50
  IC50: 31.7 µM

## O=C1C(Cl)=C(Nc2ccc(Cl)c(O)c2)C(=O)c2c(O)ccc(O)c21 [2i, 2-chloro-3-((4-chloro-3-hydroxyphenyl)amino)-5,8-dihydroxynaphthalene-1,4-dione]
[4]; B. subtilis 168 strain grown in LB broth at 37 °C for 18 h, listed as C00017
  MIC: 4 µg/mL
[4]
  antibacterial (antimicrobial) activity against B. subtilis: equal to waldiomycin or even stronger
[3]; listed as C00017
  IC50: N.I.
[3]
  inhibitory activity against WalK: did not show any inhibitory activity; also recorded: inactive

## O=C1C(Nc2ccc(Cl)c(O)c2)=CC(=O)c2c(O)cccc21 [2j, 2-((4-chloro-3-hydroxyphenyl)amino)-5-hydroxynaphthalene-1,4-dione]
[4]; [6]
  MIC: 4 µg/mL
[4]
  antibacterial (antimicrobial) activity against B. subtilis: equal to waldiomycin or even stronger
[3]; read-out: IC50
  IC50: 75.1 µM

## COc1ccc(NC2=C(Cl)C(=O)c3c(O)ccc(O)c3C2=O)cc1 [2k, 2-chloro-5,8-dihydroxy-3-((4-methoxyphenyl)amino)naphthalene-1,4-dione]
[4]; [5]
  MIC: >128 µg/mL
[4]
  antibacterial (antimicrobial) activity against B. subtilis: no or a very weak antimicrobial activity
[3]
  IC50: N.I.
  inhibitory activity against WalK: did not show any inhibitory activity; also recorded: noninhibitory; also recorded: did not inhibit WalK

## O=C(O)c1cc(NC2=C(Cl)C(=O)c3c(O)ccc(O)c3C2=O)ccc1O [2m, 5-((3-chloro-5,8-dihydroxy-1,4-dioxo-1,4-dihydronaphthalen-2-yl)amino)-2-hydroxybenzoic acid]
[4]; [5]
  MIC: 64 µg/mL
[4]
  antibacterial (antimicrobial) activity against B. subtilis: weaker
[3]; read-out: IC50
  IC50: 45 µM
[3]
  inhibitory activity against WalK: weaker

## O=C(O)c1cc(NC2=C(Cl)C(=O)c3c(cccc3[N+](=O)[O-])C2=O)ccc1O [2n, 5-((3-chloro-5-nitro-1,4-dioxo-1,4-dihydronaphthalen-2-yl)amino)-2-hydroxybenzoic acid]
[4]; [5]
  MIC: 128 µg/mL
[4]
  antibacterial (antimicrobial) activity against B. subtilis: no or a very weak antimicrobial activity
[3]
  IC50: N.I.
  inhibitory activity against WalK: did not show any inhibitory activity; also recorded: did not inhibit WalK

## O=C1c2onc(-c3ccccc3)c2C(=O)c2c(O)ccc(O)c21 [3a, 5,8-dihydroxy-3-phenylnaphtho[2,3-d]isoxazole-4,9-dione]
[4]; [5]
  MIC: 0.5 µg/mL
[4]
  antibacterial (antimicrobial) activity against B. subtilis: equal to waldiomycin or even stronger
[3]; read-out: IC50
  IC50: 51 µM

## O=C1c2onc(-c3ccccc3)c2C(=O)c2cccc(O)c21 [3c, 8-hydroxy-3-phenylnaphtho[2,3-d]isoxazole-4,9-dione]
[4]; [6]
  MIC: 0.5 µg/mL
[4]
  antibacterial (antimicrobial) activity against B. subtilis: equal to waldiomycin or even stronger
[3]
  IC50: N.I.
  inhibitory activity against WalK: did not show any inhibitory activity
